Experimental data taken from PubChem BioAssay (NCI).
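Dose response: 5 concentrations. Exposure: 48 h. Format: 96-well plates. Endpoint: linear interpolation; highest concentration if not reached. Definition used: TGI = concentration required for complete inhibition of growth.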

Columns and labels:
Test in all cases: NCI tumour cell line growth inhibition, 48 h
MDA-N = system: MDA-N
SNB-19 CNS = system: SNB-19 CNS
SNB-75 CNS = system: SNB-75 CNS
786-0 renal = system: 786-0 renal
COLO 205 colon = system: COLO 205 colon
MDA-MB-435 = system: MDA-MB-435
MCF7 breast = system: MCF7 breast
HT29 colon = system: HT29 colon
SF-295 CNS = system: SF-295 CNS
A549 NSCLC = system: A549 NSCLC
CCRF-CEM leukemia = system: CCRF-CEM leukemia
MOLT-4 leukemia = system: MOLT-4 leukemia
RPMI-8226 leukemia = system: RPMI-8226 leukemia
U251 CNS = system: U251 CNS
LOX IMVI melanoma = system: LOX IMVI melanoma
NCI-H522 lung = system: NCI-H522 lung
KM12 colon = system: KM12 colon
NCI-H460 lung = system: NCI-H460 lung
DU-145 prostate = system: DU-145 prostate
UACC-62 melanoma = system: UACC-62 melanoma
SF-539 CNS = system: SF-539 CNS
NCI-H23 lung = system: NCI-H23 lung
IGROV1 ovarian = system: IGROV1 ovarian
CAKI-1 renal = system: CAKI-1 renal
SK-MEL-28 melanoma = system: SK-MEL-28 melanoma
OVCAR-5 ovarian = system: OVCAR-5 ovarian
M14 melanoma = system: M14 melanoma
SR leukemia = system: SR leukemia
SK-OV-3 ovarian = system: SK-OV-3 ovarian
EKVX NSCLC = system: EKVX NSCLC
HCT-15 colon = system: HCT-15 colon
SW-620 colon = system: SW-620 colon
ACHN renal = system: ACHN renal
HOP-62 NSCLC = system: HOP-62 NSCLC
NCI/ADR-RES ovarian = system: NCI/ADR-RES ovarian
RXF 393 renal = system: RXF 393 renal
K-562 leukemia = system: K-562 leukemia
HCC-2998 colon = system: HCC-2998 colon
T-47D breast = system: T-47D breast
MDA-MB-231 breast = system: MDA-MB-231 breast
A498 renal = system: A498 renal
OVCAR-3 ovarian = system: OVCAR-3 ovarian
SK-MEL-5 melanoma = system: SK-MEL-5 melanoma
BT-549 breast = system: BT-549 breast
HOP-92 NSCLC = system: HOP-92 NSCLC
PC-3 prostate = system: PC-3 prostate
SN12C renal = system: SN12C renal
NCI-H226 lung = system: NCI-H226 lung
UACC-257 melanoma = system: UACC-257 melanoma
TK-10 renal = system: TK-10 renal
UO-31 renal = system: UO-31 renal
SF-268 CNS = system: SF-268 CNS
SK-MEL-2 melanoma = system: SK-MEL-2 melanoma
HCT-116 colon = system: HCT-116 colon
OVCAR-8 ovarian = system: OVCAR-8 ovarian
HS 578T breast = system: HS 578T breast
MALME-3M melanoma = system: MALME-3M melanoma
OVCAR-4 ovarian = system: OVCAR-4 ovarian
HL-60(TB) leukemia = system: HL-60(TB) leukemia

## C=CCc1cccc(/C(O)=C/C(=O)/C=C/c2ccccc2Cl)c1O
MDA-N
  TGI: > 100 µM
SNB-19 CNS
  TGI: > 84 µM
SNB-75 CNS
  TGI: > 100 µM
786-0 renal
  TGI: > 71.6 µM
COLO 205 colon
  TGI: > 58.7 µM
MDA-MB-435
  TGI: > 100 µM
MCF7 breast
  TGI: > 100 µM
HT29 colon
  TGI: 42.5 µM
SF-295 CNS
  TGI: > 87.7 µM
A549 NSCLC
  TGI: > 100 µM
CCRF-CEM leukemia
  TGI: 95.1 µM
MOLT-4 leukemia
  TGI: 15.6 µM
RPMI-8226 leukemia
  TGI: 36.5 µM
U251 CNS
  TGI: > 63.1 µM
LOX IMVI melanoma
  TGI: 24.6 µM
NCI-H522 lung
  TGI: 31 µM
KM12 colon
  TGI: 97 µM
NCI-H460 lung
  TGI: > 100 µM
DU-145 prostate
  TGI: > 100 µM
UACC-62 melanoma
  TGI: 43.3 µM
SF-539 CNS
  TGI: 72 µM
NCI-H23 lung
  TGI: 21.8 µM
IGROV1 ovarian
  TGI: 29.6 µM
CAKI-1 renal
  TGI: > 100 µM
SK-MEL-28 melanoma
  TGI: > 57.5 µM
OVCAR-5 ovarian
  TGI: > 100 µM
M14 melanoma
  TGI: > 100 µM
SR leukemia
  TGI: 16 µM
SK-OV-3 ovarian
  TGI: 97.1 µM
EKVX NSCLC
  TGI: > 100 µM
HCT-15 colon
  TGI: > 100 µM
SW-620 colon
  TGI: 90.1 µM
ACHN renal
  TGI: > 100 µM
HOP-62 NSCLC
  TGI: 61.2 µM
NCI/ADR-RES ovarian
  TGI: 45.9 µM
RXF 393 renal
  TGI: 75.8 µM
K-562 leukemia
  TGI: > 25.2 µM
HCC-2998 colon
  TGI: > 100 µM
T-47D breast
  TGI: > 100 µM
MDA-MB-231 breast
  TGI: > 93.6 µM
A498 renal
  TGI: 45 µM
OVCAR-3 ovarian
  TGI: 76.3 µM
SK-MEL-5 melanoma
  TGI: 31.7 µM
BT-549 breast
  TGI: > 81.3 µM
HOP-92 NSCLC
  TGI: 55.2 µM
PC-3 prostate
  TGI: 85 µM
SN12C renal
  TGI: > 100 µM
NCI-H226 lung
  TGI: > 75.6 µM
UACC-257 melanoma
  TGI: > 70.4 µM
TK-10 renal
  TGI: > 100 µM
UO-31 renal
  TGI: 32.7 µM
SF-268 CNS
  TGI: > 100 µM
SK-MEL-2 melanoma
  TGI: 26.2 µM
HCT-116 colon
  TGI: > 54.3 µM
OVCAR-8 ovarian
  TGI: 25.5 µM

## C/C=C/C(O)P(=O)(OC)OC (stereo unspecified)
MDA-N
  TGI: 0.671 µM
SNB-19 CNS
  TGI: 1.53 µM
SNB-75 CNS
  TGI: 1.49 µM
786-0 renal
  TGI: 0.36 µM
COLO 205 colon
  TGI: 0.366 µM
HS 578T breast
  TGI: 0.915 µM
MDA-MB-435
  TGI: 0.802 µM
MCF7 breast
  TGI: 1.01 µM
HT29 colon
  TGI: 1.11 µM
SF-295 CNS
  TGI: 1.39 µM
A549 NSCLC
  TGI: 1.07 µM
CCRF-CEM leukemia
  TGI: > 100 µM
MOLT-4 leukemia
  TGI: 11.2 µM
RPMI-8226 leukemia
  TGI: 0.514 µM
U251 CNS
  TGI: 0.872 µM
LOX IMVI melanoma
  TGI: 0.392 µM
NCI-H522 lung
  TGI: 0.664 µM
KM12 colon
  TGI: 0.936 µM
NCI-H460 lung
  TGI: 0.93 µM
DU-145 prostate
  TGI: 1.49 µM
UACC-62 melanoma
  TGI: 0.785 µM
SF-539 CNS
  TGI: 0.74 µM
NCI-H23 lung
  TGI: 1.2 µM
IGROV1 ovarian
  TGI: 1.01 µM
CAKI-1 renal
  TGI: 1.85 µM
SK-MEL-28 melanoma
  TGI: 1.36 µM
OVCAR-5 ovarian
  TGI: 1.22 µM
M14 melanoma
  TGI: 0.463 µM
SR leukemia
  TGI: > 100 µM
SK-OV-3 ovarian
  TGI: 2.51 µM
EKVX NSCLC
  TGI: 1.51 µM
HCT-15 colon
  TGI: 1.06 µM
SW-620 colon
  TGI: 0.982 µM
MALME-3M melanoma
  TGI: 1.17 µM
ACHN renal
  TGI: 1.25 µM
HOP-62 NSCLC
  TGI: 2.23 µM
RXF 393 renal
  TGI: 0.543 µM
K-562 leukemia
  TGI: 2.63 µM
OVCAR-4 ovarian
  TGI: 1.51 µM
HCC-2998 colon
  TGI: 0.774 µM
T-47D breast
  TGI: 1.55 µM
MDA-MB-231 breast
  TGI: 1.57 µM
A498 renal
  TGI: 0.955 µM
OVCAR-3 ovarian
  TGI: 0.783 µM
SK-MEL-5 melanoma
  TGI: 0.483 µM
BT-549 breast
  TGI: 1.8 µM
HOP-92 NSCLC
  TGI: 0.27 µM
PC-3 prostate
  TGI: 1.43 µM
SN12C renal
  TGI: 1.79 µM
NCI-H226 lung
  TGI: 1.39 µM
UACC-257 melanoma
  TGI: 0.792 µM
TK-10 renal
  TGI: 1.45 µM
HL-60(TB) leukemia
  TGI: 0.591 µM
UO-31 renal
  TGI: 0.334 µM
SF-268 CNS
  TGI: 0.914 µM
SK-MEL-2 melanoma
  TGI: 1 µM
HCT-116 colon
  TGI: 0.835 µM
OVCAR-8 ovarian
  TGI: 1.78 µM

## Nc1nc(Cl)cc(NCC2(CO)CC=CC2)n1
MDA-N
  TGI: > 100 µM
SNB-19 CNS
  TGI: > 100 µM
SNB-75 CNS
  TGI: > 100 µM
786-0 renal
  TGI: > 100 µM
COLO 205 colon
  TGI: > 100 µM
HS 578T breast
  TGI: > 100 µM
MDA-MB-435
  TGI: > 100 µM
MCF7 breast
  TGI: > 100 µM
HT29 colon
  TGI: > 100 µM
SF-295 CNS
  TGI: > 100 µM
A549 NSCLC
  TGI: > 100 µM
CCRF-CEM leukemia
  TGI: > 100 µM
MOLT-4 leukemia
  TGI: > 100 µM
U251 CNS
  TGI: > 100 µM
LOX IMVI melanoma
  TGI: > 100 µM
NCI-H522 lung
  TGI: > 100 µM
KM12 colon
  TGI: > 100 µM
NCI-H460 lung
  TGI: > 100 µM
DU-145 prostate
  TGI: > 100 µM
UACC-62 melanoma
  TGI: > 100 µM
SF-539 CNS
  TGI: > 100 µM
IGROV1 ovarian
  TGI: > 100 µM
CAKI-1 renal
  TGI: > 100 µM
SK-MEL-28 melanoma
  TGI: > 100 µM
OVCAR-5 ovarian
  TGI: > 100 µM
SK-OV-3 ovarian
  TGI: > 100 µM
EKVX NSCLC
  TGI: > 100 µM
HCT-15 colon
  TGI: > 100 µM
SW-620 colon
  TGI: > 100 µM
MALME-3M melanoma
  TGI: > 100 µM
ACHN renal
  TGI: > 100 µM
HOP-62 NSCLC
  TGI: > 100 µM
NCI/ADR-RES ovarian
  TGI: > 100 µM
RXF 393 renal
  TGI: > 100 µM
K-562 leukemia
  TGI: > 100 µM
OVCAR-4 ovarian
  TGI: > 100 µM
HCC-2998 colon
  TGI: > 100 µM
T-47D breast
  TGI: > 100 µM
MDA-MB-231 breast
  TGI: > 100 µM
OVCAR-3 ovarian
  TGI: > 100 µM
SK-MEL-5 melanoma
  TGI: > 100 µM
BT-549 breast
  TGI: > 100 µM
HOP-92 NSCLC
  TGI: > 100 µM
PC-3 prostate
  TGI: > 100 µM
SN12C renal
  TGI: > 100 µM
NCI-H226 lung
  TGI: > 100 µM
UACC-257 melanoma
  TGI: > 100 µM
TK-10 renal
  TGI: > 100 µM
UO-31 renal
  TGI: > 100 µM
SF-268 CNS
  TGI: > 100 µM
SK-MEL-2 melanoma
  TGI: > 100 µM
HCT-116 colon
  TGI: > 100 µM
OVCAR-8 ovarian
  TGI: > 100 µM
